Some test systems named below: DLD-1 colon; XF 498 CNS; TK-10 renal; DMS 273 small cell lung; SNB-19 CNS; M19-MEL melanoma; KM20L2 colon; DMS 114 small cell lung; K-562 leukemia; LXFL 529 NSCLC; SNB-78 CNS; HOP-18 NSCLC; RXF-631 renal.
Holding throughout (experiment): NCI-60 cell line screen, 48 h

Molecules are shown by their SMILES.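 Growth conditions: 96-well plates. Treatment: test compound, 48 hours, 5 concentrations. Analysis: linear interpolation between bracketing concentrations; unreached endpoints set to highest concentration. At the GI50, growth is halved. TGI denotes the concentration required for complete inhibition of growth.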 Where only a bound is given, the exact number is not on record here.

For `CC[N+](CC)(CC)Cc1cn(S(=O)(=O)c2ccccc2)c2ccccc12`, the TGI in the experiment with DLD-1 colon, in the experiment on XF 498 CNS, in the experiment on TK-10 renal, in the experiment with DMS 273 small cell lung, in the experiment on SNB-19 CNS and with M19-MEL melanoma was above 100 µM in each case. For the same molecule, the TGI in the experiment on KM20L2 colon, in the experiment on DMS 114 small cell lung and in the experiment on K-562 leukemia was above 100 µM in each case.

Regarding `NC(=S)Nc1nnc(-c2ccc(-c3nnc(NC(N)=S)o3)cc2)o1`, the TGI with DLD-1 colon, with LXFL 529 NSCLC, in the experiment with TK-10 renal, in the experiment with SNB-78 CNS, with DMS 273 small cell lung and in the experiment on SNB-19 CNS was above 100 µM throughout. For the same molecule, the TGI in the experiment on M19-MEL melanoma, in the experiment with KM20L2 colon, with DMS 114 small cell lung, with HOP-18 NSCLC and in the experiment with K-562 leukemia was above 100 µM throughout.

Turning to `COc1ccc2c(c1)CC1NC2Cc2ccccc21` (configuration not stated), the TGI in the experiment on DLD-1 colon, with LXFL 529 NSCLC, in the experiment on XF 498 CNS, with TK-10 renal, in the experiment on SNB-78 CNS and in the experiment with M19-MEL melanoma was above 100 µM in each case. The TGI in the experiment with KM20L2 colon, in the experiment with DMS 114 small cell lung, in the experiment on HOP-18 NSCLC and with K-562 leukemia was above 100 µM in each case.

`CN(C)c1cccc(-c2cc(=O)c3cc4c(cc3[nH]2)OCO4)c1`: the TGI with DLD-1 colon was above 100 µM; in the experiment with LXFL 529 NSCLC it was above 48.4 µM; with XF 498 CNS it was 7.24 µM; in the experiment with TK-10 renal it was above 100 µM; in the experiment on SNB-78 CNS it was above 100 µM; in the experiment with SNB-19 CNS it was above 57.6 µM. Besides, the TGI with M19-MEL melanoma was above 100 µM; with RXF-631 renal, above 100 µM; in the experiment on KM20L2 colon it was 0.515 µM; in the experiment with K-562 leukemia, above 100 µM.

Take `Cc1nc2c(s/c(=N\N)n2-c2ccccc2)c(=O)[nH]1`: the TGI with DLD-1 colon, in the experiment with LXFL 529 NSCLC, with XF 498 CNS, in the experiment with TK-10 renal, in the experiment on SNB-78 CNS and with DMS 273 small cell lung was above 100 µM in each case. Besides, the TGI with SNB-19 CNS, in the experiment with M19-MEL melanoma, in the experiment with KM20L2 colon, in the experiment on DMS 114 small cell lung and in the experiment on K-562 leukemia was above 100 µM in each case.

With `Cc1c(C(=O)Nc2ccc(Cl)c(C(F)(F)F)c2)oc2cc(O)ccc2/c1=N\NC(N)=S`, the TGI with DLD-1 colon, in the experiment on LXFL 529 NSCLC, in the experiment on XF 498 CNS, in the experiment on TK-10 renal, with SNB-78 CNS and with DMS 273 small cell lung was above 100 µM in each case. Further, the TGI in the experiment on SNB-19 CNS, in the experiment on M19-MEL melanoma, in the experiment on KM20L2 colon, in the experiment with DMS 114 small cell lung, in the experiment on HOP-18 NSCLC and with K-562 leukemia was above 100 µM throughout.

For the molecule `CC1C(c2ccccc2)=CCON1c1ccccc1` (configuration not stated), the TGI with DLD-1 colon, in the experiment with LXFL 529 NSCLC, in the experiment on XF 498 CNS, in the experiment on SNB-78 CNS, in the experiment with SNB-19 CNS and with M19-MEL melanoma was above 100 µM each time. Further, the TGI in the experiment on KM20L2 colon, with DMS 114 small cell lung and in the experiment on K-562 leukemia was above 100 µM each time.

Turning to `C/C(=C\c1csc(C)n1)[C@@H]1C[C@@H]2O[C@]2(C)CCC[C@H](C)[C@H](O)[C@@H](C)C(=O)C(C)(C)[C@@H](O)CC(=O)O1` (tested in a mixture with another compound), the TGI in the experiment with TK-10 renal, in the experiment on SNB-19 CNS and in the experiment on K-562 leukemia was above 1 µM each time. The GI50 in the experiment with SNB-19 CNS is 25 nM; in the experiment with K-562 leukemia, 26.2 nM.

`CC/C(=C/OC)P1(=O)OC(C)(C)CN1C(C)(C)C` (configuration not stated): the TGI in the experiment on TK-10 renal, in the experiment on SNB-19 CNS and in the experiment on K-562 leukemia was above 100 µM throughout.

On to `COc1ccc(OC)c2sc(N3C(=O)/C(=C/c4ccccc4S)N=C3c3ccccc3)nc12`, for which the TGI in the experiment with TK-10 renal, in the experiment on SNB-19 CNS and in the experiment with K-562 leukemia was above 100 µM each time.

Take `Nc1ccccc1C(=O)NNC(=O)c1ccccc1N`: the TGI in the experiment on TK-10 renal, in the experiment with SNB-19 CNS and in the experiment with K-562 leukemia was above 100 µM in each case.

With `c1ccc2c(OCC3CO3)ccc(OCC3CO3)c2c1` (configuration not stated), the TGI with TK-10 renal was determined as 26.7 µM; in the experiment with SNB-19 CNS, 21 µM; with K-562 leukemia, 16.8 µM.

Take `O=C1CC(n2cccc2)c2cc(Br)sc21` (configuration not stated): the TGI in the experiment with TK-10 renal, in the experiment with SNB-19 CNS and with K-562 leukemia was above 100 µM each time.

For `CCOC(=O)Cc1nc2nn(Cc3ccccc3)cc2c(=O)[nH]1`, the TGI with TK-10 renal, in the experiment with SNB-19 CNS and in the experiment on K-562 leukemia was above 100 µM throughout.

For `CCN(CC)CCN1CCN=c2c3cc(OC)ccc3n3cnc4ccc1c2c43`, the TGI was determined as 4.93 µM in the experiment on TK-10 renal, 3.04 µM in the experiment on SNB-19 CNS and 2.68 µM with K-562 leukemia.

As to `Cc1cccc(NC(=O)CSc2nnc(Cc3ccccc3)o2)c1`, the TGI in the experiment on DLD-1 colon, with LXFL 529 NSCLC, in the experiment on TK-10 renal, in the experiment with SNB-78 CNS, in the experiment on DMS 273 small cell lung and with SNB-19 CNS was above 100 µM each time. The TGI with KM20L2 colon, in the experiment on DMS 114 small cell lung, with HOP-18 NSCLC and in the experiment on K-562 leukemia was above 100 µM each time.

For the molecule `Cc1cc2c(cc1Cl)SC(NNC(=O)c1ccncc1)=NS2(=O)=O`, the TGI with TK-10 renal, with SNB-19 CNS and with K-562 leukemia was above 10 µM in each case.

Regarding `NC(=Nc1ccc(Cl)c(Cl)c1)c1ccccc1N`, the results for the TGI in the experiment with TK-10 renal, with SNB-19 CNS and in the experiment on K-562 leukemia were above 100 µM, above 100 µM and 41.9 µM, respectively.

For the molecule `CCOC(=O)c1c(-c2ccc(Cl)cc2)c(C#N)c(=S)n(C2OC(CO)C(O)C(O)C2O)c1-c1ccccc1` (configuration not stated), the TGI in the experiment with TK-10 renal stood at 84 µM; in the experiment on SNB-19 CNS, 52.4 µM; in the experiment with K-562 leukemia it was 70.9 µM.

Turning to `CN=C1Nc2ccccc2C(=S)N2CSC[C@@H]12`, the TGI in the experiment with TK-10 renal, in the experiment with SNB-19 CNS and with K-562 leukemia was above 100 µM in each case.

On to `O=C(/C=C(\O)C(=O)O)/C=C(\O)c1ccccc1Cl`, for which the TGI in the experiment on DLD-1 colon, in the experiment with LXFL 529 NSCLC, with XF 498 CNS, in the experiment on TK-10 renal, in the experiment on DMS 273 small cell lung and in the experiment on SNB-19 CNS was above 100 µM throughout. The TGI in the experiment on KM20L2 colon, with DMS 114 small cell lung, in the experiment with HOP-18 NSCLC and with K-562 leukemia was above 100 µM in each case.

Turning to `CCCOc1ccc(/C=C/C2=[N+](CCO)CCO2)cc1`, the TGI in the experiment on TK-10 renal, with SNB-19 CNS and with K-562 leukemia was above 100 µM throughout.

Turning to `CC(C)CC(NC(=O)OCc1ccccc1)C(=O)NCCCCC(N)C(=O)NC(CCCCNC(=O)C(CC(C)C)NC(=O)OCc1ccccc1)C(=O)NC(CCCCNC(=O)C(CC(C)C)NC(=O)OCc1ccccc1)C(=O)NC(CCCCNC(=O)C(CC(C)C)NC(=O)OCc1ccccc1)C(=O)NC(CCCCNC(=O)C(CC(C)C)NC(=O)OCc1ccccc1)C(=O)NC(CCCCNC(=O)C(CC(C)C)NC(=O)OCc1ccccc1)C(=O)O` (configuration not stated), the TGI in the experiment with TK-10 renal, with SNB-19 CNS and in the experiment with K-562 leukemia was above 100 µM each time.

`NC(=O)CC1(O)C=CC(=O)C=C1`: the TGI in the experiment with TK-10 renal, with SNB-19 CNS and in the experiment on K-562 leukemia was above 100 µM in each case.

Turning to `COc1ccc(OC)c2c(=O)cc(-c3ccccc3)[nH]c12`, the TGI with TK-10 renal, with SNB-19 CNS and in the experiment on K-562 leukemia was above 100 µM in each case.

For the molecule `COC(=O)C(Cc1ccccc1)C(=O)NC(CNC(=O)OCc1ccccc1)C(=O)OCc1ccccc1` (configuration not stated), the TGI was 98 µM with TK-10 renal, above 100 µM in the experiment with SNB-19 CNS and 45 µM with K-562 leukemia.

With `CC1(C)C[C@H]2C3=CC[C@@H]4[C@@]5(C)CC[C@H](O)C(C)(C)[C@@H]5CC[C@@]4(C)[C@]3(C)C[C@@H](O)[C@@]23C[C@@H]1OC3=O`, the TGI in the experiment with TK-10 renal, in the experiment on SNB-19 CNS and in the experiment on K-562 leukemia was above 100 µM in each case.

As for `COc1ccccc1NC(=S)Nc1cccc(C)n1`, the TGI in the experiment with TK-10 renal, with SNB-19 CNS and with K-562 leukemia was above 100 µM throughout.

On to `CC1=C(N(C)C)C(=O)c2nc3n(c2C1=O)CCC3OC(N)=O` (configuration not stated), for which the TGI with DLD-1 colon stood at 29.9 µM; with XF 498 CNS it was 38.8 µM; in the experiment on TK-10 renal it was 32.3 µM; in the experiment with SNB-78 CNS it was 40.9 µM; with DMS 273 small cell lung, 29.3 µM; with SNB-19 CNS, 31.4 µM. The TGI came to 3.12 µM in the experiment with M19-MEL melanoma; 38.6 µM in the experiment with KM20L2 colon; 30.6 µM in the experiment with DMS 114 small cell lung; 32 µM in the experiment on HOP-18 NSCLC; 49.8 µM in the experiment with K-562 leukemia.
